Values quoted from earlier work in PubChem BioAssay AID1259409 (Chemical Carcinogenesis Research Information System (CCRIS), 2018).

Tested on: rodent chemically induced tumor inhibition, incidence and multiplicity
Assay: CCRIS tumor inhibitor studies

C[Se]CCC(N)C(=O)O (stereo not drawn)
tumour outcome (control, treated, inhibition, significance) (Carcinogen: 3'-METHYL-4-DIMETHYLAMINOAZOBENZENE, 55-80-1, Dose [Inhibitor]: 118 UG SELENIUM AS HIGH SELENIUM YEAST/GM IN DIET DAILY STARTING 1 WK PRIOR TO START OF CARCINOGEN TREATMENT AND CONTINU, Route [Inhibitor]: ORAL, Species: RAT, Strain/Sex: SPRAGUE-DAWLEY/MALE, Target Tissue: Type of Lesion: LIVER: ADENOCARCINOMA, Dose [Carcinogen]: 0.05% IN DIET DAILY FOR 8 WK, Promoter: NONE USED): 11/12 (92%), 9/14 (64%), 30%, p 0.04 | tumour outcome (control, treated, inhibition, significance) (Carcinogen: 4-(METHYLNITROSAMINO)-1-(3-PYRIDYL)-1-BUTANONE, 64091-91-4, Dose [Inhibitor]: 0, 3.75 PPM IN DIET FOR 3 WK BEGINNING 1 WK PRIOR TO CARCINOGEN DOSE (STUDY DURATION: 18 WK), Route [Inhibitor]: ORAL, Species: MOUSE, Strain/Sex: STRAIN-A/FEMALE, Target Tissue: Type of Lesion: LUNG: TUMOR, Dose [Carcinogen]: 10 UMOL IN 0.1 ML SALINE ONCE, Promoter: NONE USED): 100%, 96%, 4%, not significant | tumour outcome (control, treated, inhibition, significance) (Carcinogen: 4-(METHYLNITROSAMINO)-1-(3-PYRIDYL)-1-BUTANONE, 64091-91-4, Dose [Inhibitor]: 0, 3.75 PPM IN DIET FOR 15 WK BEGINNING 1 WK POST CARCINOGEN DOSE (STUDY DURATION: 18 WK), Route [Inhibitor]: ORAL, Species: MOUSE, Strain/Sex: STRAIN-A/FEMALE, Target Tissue: Type of Lesion: LUNG: TUMOR, Dose [Carcinogen]: 10 UMOL IN 0.1 ML SALINE ONCE, Promoter: NONE USED): 100%, 100%, 0%, not significant | tumour outcome (control, treated, inhibition, significance) (Carcinogen: 7,12-DIMETHYLBENZ[A]ANTHRACENE (DMBA) [57-97-6], Dose [Inhibitor]: 20 UG/D GIVEN 2 WK BEFORE DMBA AND DAILY FOR 1 WK (STUDY DURATION: 120 D), Route [Inhibitor]: ORAL (GAVAGE), Species: RAT, Strain/Sex: WISTAR/FEMALE (12,?)/(12,12), Target Tissue: Type of Lesion: MAMMARY GLAND: CARCINOMA, Dose [Carcinogen]: 12 MG ONCE (STUDY DURATION: 120 D)): 33%, 0%, 100% | tumour outcome (control, treated, inhibition, significance) (Carcinogen: 7,12-DIMETHYLBENZ[A]ANTHRACENE, 57-97-6, Dose [Inhibitor]: 0, 0.2 PPM IN DIET BEGINNING 3 D PRIOR TO CARCINOGEN DOSE AND CONTINUING FOR 8 MO (STUDY DURATION: 8 MO), Route [Inhibitor]: ORAL, Species: MOUSE, Strain/Sex: BALB/FEMALE, Target Tissue: Type of Lesion: MAMMARY GLAND: ADENOCARCINOMA, Dose [Carcinogen]: 1 MG/WK FOR 6 WK, Promoter: NONE USED): 12/31 (39%), 6/21 (29%), 26%, not calculated | tumour outcome (control, treated, inhibition, significance) (Carcinogen: 7,12-DIMETHYLBENZ[A]ANTHRACENE, 57-97-6, Dose [Inhibitor]: 0, 2 PPM IN DIET BEGINNING 3 D PRIOR TO CARCINOGEN DOSE AND CONTINUING FOR 8 MO (STUDY DURATION: 8 MO), Route [Inhibitor]: ORAL, Species: MOUSE, Strain/Sex: BALB/FEMALE, Target Tissue: Type of Lesion: MAMMARY GLAND: ADENOCARCINOMA, Dose [Carcinogen]: 1 MG/WK FOR 6 WK, Promoter: NONE USED): 12/31 (39%), 6/23 (26%), 33%, not calculated | tumour outcome (control, treated, inhibition, significance) (Carcinogen: AZOXYMETHANE [25843-45-2], Dose [Inhibitor]: 10 PPM IN DIET FOR 56 WK BEGINNING 2 WK PRIOR TO FIRST CARCINOGEN DOSE (STUDY DURATION: 56 WK), Route [Inhibitor]: ORAL, Species: RAT, Strain/Sex: F344/MALE, Target Tissue: Type of Lesion: COLON: ADENOMA OR ADENOCARCINOMA, Dose [Carcinogen]: 15 MG/KG BW 1X/WK FOR 2 WK (STUDY DURATION: 56 WK), Promoter: NONE): 76%, 64%, 16%, not significant | tumour outcome (control, treated, inhibition, significance) (Carcinogen: AZOXYMETHANE [25843-45-2], Dose [Inhibitor]: 15 PPM IN DIET FOR 56 WK BEGINNING 2 WK PRIOR TO FIRST CARCINOGEN DOSE (STUDY DURATION: 56 WK), Route [Inhibitor]: ORAL, Species: RAT, Strain/Sex: F344/MALE, Target Tissue: Type of Lesion: COLON: ADENOMA OR ADENOCARCINOMA, Dose [Carcinogen]: 15 MG/KG BW 1X/WK FOR 2 WK (STUDY DURATION: 56 WK), Promoter: NONE): 76%, 89%, -17%, not significant | tumour outcome (control, treated, inhibition, significance) (Carcinogen: N-METHYL-N-NITROSOUREA, 684-93-5, Dose [Inhibitor]: 5 PPM IN DIET DAILY FOR 128 D STARTING 7 D AFTER CARCINOGEN TREATMENT AND CONTINUING FOR DURATION OF STUDY (STUDY DURATI, Route [Inhibitor]: ORAL, Species: RAT, Strain/Sex: SPRAGUE-DAWLEY/FEMALE, Target Tissue: Type of Lesion: MAMMARY GLAND: CARCINOMA, Dose [Carcinogen]: 50 MG/KG BW IN ACIDIFIED SALINE (PH 4.0) ONCE AT AGE 50 D, Promoter: NONE USED): 90%, 95%, -6%, not significant | tumour outcome (control, treated, inhibition, significance) (Carcinogen: N-METHYL-N-NITROSOUREA, 684-93-5, Dose [Inhibitor]: 6 PPM IN DIET DAILY FOR 128 D STARTING 7 D AFTER CARCINOGEN TREATMENT AND CONTINUING FOR DURATION OF STUDY (STUDY DURATI, Route [Inhibitor]: ORAL, Species: RAT, Strain/Sex: SPRAGUE-DAWLEY/FEMALE, Target Tissue: Type of Lesion: MAMMARY GLAND: CARCINOMA, Dose [Carcinogen]: 50 MG/KG BW IN ACIDIFIED SALINE (PH 4.0) ONCE AT AGE 50 D, Promoter: NONE USED): 90%, 80%, 11%, not significant | tumour outcome (control, treated, inhibition, significance) (Carcinogen: NONE USED, Dose [Inhibitor]: 1 PPM IN DIET DAILY STARTING AT AGE 13.8 MO AND CONTINUING FOR LIFE (STUDY DURATION: LIFE), Route [Inhibitor]: ORAL, Species: MOUSE, Strain/Sex: C3H/FEMALE, Target Tissue: Type of Lesion: MAMMARY GLAND: ADENOCARCINOMA, Promoter: NONE USED): 20/26 (77%), 12/26 (46%), 40%, p<0.05 | tumour outcome (control, treated, inhibition, significance) (Carcinogen: NONE USED, Dose [Inhibitor]: 1 PPM IN DIET DAILY STARTING AT WEANING AND CONTINUING FOR LIFE (STUDY DURATION: LIFE), Route [Inhibitor]: ORAL, Species: MOUSE, Strain/Sex: C3H/FEMALE, Target Tissue: Type of Lesion: MAMMARY GLAND: ADENOCARCINOMA, Promoter: NONE USED): 20/26 (77%), 7/26 (27%), 65%, p<0.005 | tumour outcome (control, treated, inhibition, significance) (Carcinogen: NONE USED, Dose [Inhibitor]: 1 PPM IN DIET DAILY STARTING AT WEANING AND CONTINUING THROUGH AGE 13.8 MO FOL LOWED BY CONTROL DIET FOR LIFE (STUDY DUR, Route [Inhibitor]: ORAL, Species: MOUSE, Strain/Sex: C3H/FEMALE, Target Tissue: Type of Lesion: MAMMARY GLAND: ADENOCARCINOMA, Promoter: NONE USED): 20/26 (77%), 18/26 (69%), 10%, not significant
